Source: US6667335B2, “Imidazole derivatives” (Hoffmann-La Roche Inc., priority 2001, dated 2003)

How the values were obtained:
[1] = target: T1, NMDA-receptor subtype 2B (Rattus norvegicus, UniProt P35439+Q00960); test: 3H-Ro 25-6981 binding (displacement) on rat brain membranes; details: displacement of 5 nM 3H-Ro 25-6981, rat whole brain membranes (minus cerebellum and medulla oblongata), 2 hours at 4° C.
T1 construct: Membranes were prepared by homogenization of the whole brain minus cerebellum and medulla oblongata; from tissue; host or cells: rat whole brain minus cerebellum and medulla oblongata, membrane preparation
T1 sequence (Q00960 27-1482, other chains not shown): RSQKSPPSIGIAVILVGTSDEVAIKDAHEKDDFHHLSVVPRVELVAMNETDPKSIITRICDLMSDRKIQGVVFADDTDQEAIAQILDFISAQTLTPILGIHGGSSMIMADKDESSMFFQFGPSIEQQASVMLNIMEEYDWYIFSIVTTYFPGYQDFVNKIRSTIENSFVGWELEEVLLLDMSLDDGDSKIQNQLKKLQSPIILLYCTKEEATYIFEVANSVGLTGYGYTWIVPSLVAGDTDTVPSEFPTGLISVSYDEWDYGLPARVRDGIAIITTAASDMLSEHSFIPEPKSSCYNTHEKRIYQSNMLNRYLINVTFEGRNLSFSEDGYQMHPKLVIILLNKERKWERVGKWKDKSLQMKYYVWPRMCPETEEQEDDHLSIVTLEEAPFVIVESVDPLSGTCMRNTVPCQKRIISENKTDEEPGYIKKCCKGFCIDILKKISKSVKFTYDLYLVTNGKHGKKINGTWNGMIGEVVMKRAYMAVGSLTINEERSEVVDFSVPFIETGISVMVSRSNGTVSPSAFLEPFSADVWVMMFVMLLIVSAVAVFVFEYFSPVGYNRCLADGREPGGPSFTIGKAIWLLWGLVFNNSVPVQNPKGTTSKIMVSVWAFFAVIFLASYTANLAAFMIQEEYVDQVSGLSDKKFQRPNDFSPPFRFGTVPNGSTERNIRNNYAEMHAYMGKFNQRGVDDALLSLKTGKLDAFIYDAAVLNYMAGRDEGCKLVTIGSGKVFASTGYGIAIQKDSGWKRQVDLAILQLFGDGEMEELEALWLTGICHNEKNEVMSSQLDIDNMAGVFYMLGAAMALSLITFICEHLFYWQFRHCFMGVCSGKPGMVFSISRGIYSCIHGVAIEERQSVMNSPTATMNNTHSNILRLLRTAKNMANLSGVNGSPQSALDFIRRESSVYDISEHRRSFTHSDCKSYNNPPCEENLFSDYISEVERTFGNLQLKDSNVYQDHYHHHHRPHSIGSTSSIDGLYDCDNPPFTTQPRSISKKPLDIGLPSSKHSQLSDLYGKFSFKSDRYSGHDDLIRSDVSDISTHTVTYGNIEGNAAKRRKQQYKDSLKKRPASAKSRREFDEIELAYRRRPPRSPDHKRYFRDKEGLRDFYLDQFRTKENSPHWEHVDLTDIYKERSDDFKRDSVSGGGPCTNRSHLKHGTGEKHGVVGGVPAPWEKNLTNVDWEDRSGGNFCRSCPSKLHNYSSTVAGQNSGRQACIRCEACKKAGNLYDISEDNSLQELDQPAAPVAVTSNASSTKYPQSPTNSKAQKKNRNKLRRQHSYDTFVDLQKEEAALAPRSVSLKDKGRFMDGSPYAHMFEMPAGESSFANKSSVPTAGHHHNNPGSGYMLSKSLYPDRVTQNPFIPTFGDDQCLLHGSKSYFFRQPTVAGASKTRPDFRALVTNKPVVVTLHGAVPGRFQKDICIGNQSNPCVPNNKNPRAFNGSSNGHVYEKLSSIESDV
Procedure: ^3H[R-(R*,S*)]-(α-(4-Hydroxy-phenyl)-β-methyl-4-(phenyl-methyl)-1-piperidine propanol)binding
Male Füllinsdorf albino rats weighing between 150-200 g were used. Membranes were prepared by homogenization of the whole brain minus cerebellum and medulla oblongata with a Polytron (10.000 rpm, 30 seconds), in 25 volumes of a cold Tris-HCl 50 mM, EDTA 10 mM, pH 7.1 buffer. The homogenate was centrifuged at 48,000 g for 10 minutes at 4° C. The pellet was resuspended using the Polytron in the same volume of buffer and the homogenate was incubated at 37° C. for 10 minutes. After centrifugation the pellet was homogenized in the same buffer and frozen at −80° C. for at least 16 hours but not more than 10 days. For the binding assay the homogenate was thawed at 37° C., centrifuged and the pellet was washed three times as above in a Tris-HCl 5 mM, pH 7.4 cold buffer. The final pellet was resuspended in the same buffer and used at a final concentration of […]. ^3H-Ro 25-6981 binding experiments were performed using a Tris-HCl 50 mM, pH 7.4 buffer. For displacement experiments 5 nM of ^3H-Ro 25-6981 were used and non specific binding was measured using 10 mM of tetrahydroisoquinoline and usually it accounts for 10% of the total. The incubation time was 2 hours at 4° C. and the assay was stopped by filtration on Whatmann GF/B glass fiber filters (Unifilter-96, Packard, Zürich, Switzerland). The filters were washed 5 times with cold buffer. The radioactivity on the filter was counted on a Packard Top-count microplate scintillation counter after addition of […] of microscint 40 (Canberra Packard S.A., Zuirich, Switzerland).
The effects of compounds were measured using a minimum of 8 concentrations and repeated at least once.

| SMILES | IC50 [1] | melting point |
| --- | --- | --- |
| Cc1nccn1Cc1cn(-c2ccc3c(c2)OCO3)cn1.Cl.Cl [Example 52, 1H-Imidazole, 1-[[1-(1,3-Benzodioxol-5-yl)-1H-imidazol-4-yl]methyl]-2-methyl-, Hydrochloride (1:2)] | 78 nM | > 250 °C |
| CCc1nccn1Cc1cn(-c2ccc(F)c(Cl)c2)cn1.Cl.Cl [Example 94, 1H-Imidazole, 1-[[1-(3-Chloro-4-fluorophenyl)-1H-imidazol-4-yl]methyl]-2-ethyl-, Hydrochloride (1:2)] | 21 nM | 248 to 250 °C |
| Cc1nccn1Cc1ncn(-c2ccc(Cl)c(Cl)c2)c1C.Cl.Cl [Example 103, 1H-Imidazole, 1-(3,4-Dichlorophenyl)-5-methyl-4-[(2-methyl-1H-imidazol-1-yl)methyl]-, Hydrochloride (1:2)] | 43 nM | > 240 °C (dec.) |
| Cc1nccn1Cc1cn(-c2cccc(SC(F)(F)F)c2)cn1.Cl.Cl [Example 144, 1H-Imidazole, 2-Methyl-1-[[1-[3-(trifluoromethylthio)phenyl]-1H-imidazol-4-yl]methyl]-, Hydrochloride (1:2)] | 38 nM | 169 to 170 °C |
| Cc1nccn1Cc1cn(-c2cccc(C(C)(F)F)c2)cn1.Cl.Cl [Example 147, 1H-Imidazole, 1-[[1-[3-(1,1-Difluoroethyl)phenyl]-1H-imidazol-4-yl]methyl]-2-methyl-, Hydrochloride (1:2)] | 9.2 nM | > 200 °C (dec.) |
| CC(F)(F)c1cc(-n2cnc(Cn3ccnc3)c2)ccc1F.Cl.Cl [Example 150, 1-[3-(1,1-Difluoro-ethyl)-4-fluoro-phenyl]-4-imidazol-1-ylmethyl-1H-imidazole Hydrochloride (1:2)] | 13.5 nM | > 200 °C (dec.) |
| CC(C)c1cccc(-n2cnc(Cn3ccnc3)c2)c1.Cl.Cl [Example 154, 4-Imidazol-1-ylmethyl-1-(3-isopropyl-phenyl)-1H-imidazole Hydrochloride (1:2)] | 48 nM | 200 to 206 °C |
| Cc1nccn1Cc1cn(-c2ccc(F)c(Br)c2)cn1.Cl.Cl [Example 157, 1H-Imidazole, 1-[[1-(3-Bromo-4-fluorophenyl)-1H-imidazol-4-yl]methyl]-2-methyl-, Hydrochloride (1:2)] | 14 nM | 232 to 233 °C |
| CCc1cccc(-n2cnc(Cn3ccnc3C)c2)c1.Cl.Cl [Example 159, 1H-Imidazole, 1-[[1-(3-Ethylphenyl)-1H-imidazol-4-yl]methyl]-2-methyl-, Hydrochloride (1:2)] | 14 nM | > 200 °C (dec.) |
| CCc1cccc(-n2cnc(Cn3ccnc3CC)c2)c1.Cl.Cl [Example 160, 1H-Imidazole, 2-Ethyl-1-[[1-(3-ethylphenyl)-1H-imidazol-4-yl]methyl]-, Hydrochloride (1:2)] | 16 nM | > 200 °C (dec.) |
| CCc1cccc(-n2cnc(Cn3ccnc3)c2)c1.Cl.Cl [Example 161, 1-(3-Ethyl-phenyl)-4-imidazol-1-ylmethyl-1H-imidazole Hydrochloride (1:2)] | 50 nM | > 190 °C (dec.) |
| Cc1nccn1Cc1cn(-c2cccc(C3CC3)c2)cn1.Cl.Cl [Example 162, 1H-Imidazole, 1-[[1-(3-Cyclopropylphenyl)-1H-imidazol-4-yl]methyl]-2-methyl-, Hydrochloride (1:2)] | 16 nM | 174 to 175 °C |
| Cc1nccn1Cc1cn(-c2cccc(OC(F)(F)F)c2)cn1.Cl.Cl [Example 170, 1H-Imidazole, 2-Methyl-1-[[1-[3-(trifluoromethoxy)phenyl]-1H-imidazol-4-yl]methyl]-, Hydrochloride (1:2)] | 39 nM | 221 to 223 °C |
| CCc1nccn1Cc1cn(-c2cccc(Cl)c2)cn1.Cl.Cl [Example 174, 1H-Imidazole, 1-[[1-(3-Chlorophenyl)-1H-imidazol-4-yl]methyl]-2-ethyl-, Hydrochloride (1:2)] | 63 nM | > 200 °C (dec.) |

Further molecules by falling IC50 [1], results first:

| IC50 [1] | melting point | SMILES |
| --- | --- | --- |
| 93 nM | 220 to 221 °C | CCc1nccn1Cc1cn(-c2ccc(OC)c(Cl)c2)cn1.Cl.Cl [Example 58, 1H-Imidazole, 1-[[1-(3-Chloro-4-methoxyphenyl)-1H-imidazol-4-yl]methyl]-2-ethyl-, Hydrochloride (1:2)] |
| 85 nM | 202 to 203 °C | OCc1nccn1Cc1cn(-c2ccc(Cl)c(Cl)c2)cn1 [Example 109, {1-[1-(3,4-Dichloro-phenyl)-1H-imidazol-4-yl-methyl]-1H-imidazol-2-yl}-methanol] |
| 61 nM | 243 to 244 °C | Cc1nccn1Cc1cn(-c2ccc(Cl)cc2)cn1.Cl.Cl [Example 48, 1H-Imidazole, 1-[[1-(4-Chlorophenyl)-1H-imidazol-4-yl]methyl]-2-methyl-, Hydrochloride (1:2)] |
| 48 nM | 218 to 220 °C | Cc1ccc(-n2cnc(Cn3ccnc3)c2)cc1Cl.Cl.Cl [Example 89, 1H-Imidazole, 1-(3-Chloro-4-methylphenyl)-4-(1H-imidazol-1-yl-methyl)-, Hydrochloride (1:2)] |
| 46 nM | 239 to 241 °C | Cl.Cl.Fc1ccc(-n2cnc(Cn3ccnc3)c2)cc1C(F)F [Example 165, 1-(3-Difluoromethyl-4-fluoro-phenyl)-4-imidazol-1-ylmethyl-1H-imidazole Hydrochloride (1:2)] |
| 41 nM | 229 to 230 °C | Cl.Cl.Fc1ccc(-n2cnc(Cn3ccnc3)c2)cc1Br [Example 158, 1-(3-Bromo-4-fluoro-phenyl)-4-imidazol-1-ylmethyl-1H-imidazole Hydrochloride (1:2)] |
| 24 nM | 207 to 208 °C | C=Cc1cccc(-n2cnc(Cn3ccnc3C)c2)c1.Cl.Cl [Example 172, 1H-Imidazole, 2-Methyl-1-[[1-(3-vinylphenyl)-1H-imidazol-4-yl]methyl]-, Hydrochloride (1:2)] |
| 20 nM | 224 to 225 °C | Cc1nccn1Cc1cn(-c2ccc(F)c(Cl)c2)cn1.Cl.Cl [Example 93, 1H-Imidazole, 1-[[1-(3-Chloro-4-fluorophenyl)-1H-imidazol-4-yl]methyl]-2-methyl-, Hydrochloride (1:2)] |
| 20 nM | > 200 °C (dec.) | CCc1nccn1Cc1cn(-c2cccc(SC)c2)cn1.Cl.Cl [Example 166, 1H-Imidazole, 2-Ethyl-1-[[1-[3-(methylthio)phenyl]-1H-imidazol-4-yl]methyl]-, Hydrochloride (1:2)] |
| 17 nM | 242 to 243 °C | Cc1ccc(-n2cnc(Cn3ccnc3C)c2)cc1Cl.Cl.Cl [Example 87, 1H-Imidazole, 1-[[1-(3-Chloro-4-methylphenyl)-1H-imidazol-4-yl]methyl]-2-methyl-, Hydrochloride (1:2)] |
| 17 nM | 223 to 225 °C (dec.) | Cc1nccn1Cc1cn(-c2ccc(F)c(C(F)F)c2)cn1.Cl.Cl [Example 163, 1H-Imidazole, 1-[[1-(3-Difluoromethyl-4-fluorophenyl)-1H-imidazol-4-yl]methyl]-2-methyl-, Hydrochloride (1:2)] |
| 14 nM | 238 to 239 °C | CCc1nccn1Cc1cn(-c2ccc(F)c(Br)c2)cn1.Cl.Cl [Example 156, 1H-Imidazole, 1-[[1-(3-Bromo-4-fluorophenyl)-1H-imidazol-4-yl]methyl]-2-ethyl-, Hydrochloride (1:2)] |
| 11 nM | > 250 °C | CCNc1nccn1Cc1cn(-c2ccc(Cl)c(Cl)c2)cn1.Cl.Cl [Example 111, {1-[1-(3,4-Dichloro-phenyl)-1H-imidazol-4-yl-methyl]-1H-imidazol-2-yl}-ethyl-amine Hydrochloride (1:2)] |
| 10 nM | > 200 °C (dec.) | Cc1nccn1Cc1cn(-c2cccc(C(C)C)c2)cn1.Cl.Cl [Example 152, 1H-Imidazole, 1-[[1-(3-Isopropylphenyl)-1H-imidazol-4-yl]methyl]-2-methyl-, Hydrochloride (1:2)] |
| 8.2 nM | > 200 °C (dec.) | Cc1nccn1Cc1cn(-c2ccc(F)c(C(C)(F)F)c2)cn1.Cl.Cl [Example 149, 1H-Imidazole, 1-[[1-[3-(1,1-Difluoroethyl)-4-fluorophenyl]-1H-imidazol-4-yl]methyl]-2-methyl-, Hydrochloride (1:2)] |
| 8 nM | 130 to 134 °C (dec.) | CCc1nccn1Cc1cn(-c2cccc(C(C)(F)F)c2)cn1.Cl.Cl [Example 146, 1H-Imidazole, 1-[[1-[3-(1,1-Difluoroethyl)phenyl]-1H-imidazol-4-yl]methyl]-2-ethyl-, Hydrochloride (1:2)] |
